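Interpolation was linear, between the two tested concentrations surrounding the appropriate level; five concentrations were tested over 48 hours in 96-well plates. Here, GI50 denotes the concentration required for 50% inhibition of growth. TGI denotes the concentration required for complete inhibition of growth.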

Holding throughout (test): growth of human tumour cells (NCI), 48 h
Assay [1] relates to UACC-257 melanoma.
Assay [2] deals with RPMI-8226 leukemia.
Assay [3] has as its system HL-60(TB) leukemia.
The subject of assay [4] is CAKI-1 renal.
In assay [5] the test system is HOP-92 NSCLC.
Assay [6] concerns SK-MEL-2 melanoma.
For assay [7], the system named is SN12C renal.
Assay [8] relates to HT29 colon.
Assay [9] has as its system UO-31 renal.
Assay [10] relates to SK-OV-3 ovarian.

In the case of `CC(=O)NC1=C(C)C(=O)c2c(nc3n2CC[C@H]3OC(C)=O)C1=O`, the TGI in assay [1] stood at 2.2 µM; in [2], 7.4 µM; in assay [3], 8.97 µM; in assay [4] it was 8.22 µM; in assay [5], 1.83 µM; in [6], 3.52 µM. In addition, the figures for the TGI in [7], in assay [8] and in assay [9] were 3.17 µM, 8.13 µM and 6.78 µM, respectively.
For the compound `O=C(O)/C=C/C(=O)O`, the TGI in assay [1], in assay [2], in assay [3], in assay [4], in assay [5] and in assay [6] was above 100 µM throughout. Moreover, the TGI in assay [7], in assay [8] and in assay [9] was above 100 µM in each case.
`O=C(O)C1SCCS1`: the TGI in assay [1], in assay [10], in [2], in [3], in assay [5] and in [7] was above 100 µM each time. Moreover, the TGI in [8] and in assay [9] was above 100 µM each time.
For `O=C(NN1C(=O)C=CC1=O)c1ccccc1Nc1ccccc1C(=O)NN1C(=O)C=CC1=O`, the TGI in assay [1], in assay [2], in assay [3], in assay [4], in assay [5] and in assay [6] was above 100 µM in each case. Moreover, the TGI in [7], in assay [8] and in [9] was above 100 µM throughout.
Regarding `COc1ccc2c(c1)-c1nn(CCN(C)C)c3ccc(C(=O)NCCCN(C)CCCNC(=O)c4ccc5c6c(nn5CCN(C)C)-c5cc(OC)ccc5Nc46)c(c13)N2`, the TGI stood at 0.614 µM in [1]; 3.18 µM in assay [10]; 0.0768 µM in assay [2]; 2.63 µM in assay [3]; 8.12 µM in assay [4]; 0.25 µM in assay [6]. Besides, the TGI in assay [7] came out at 0.983 µM; in assay [8], 1.74 µM; in [9] it was 4.41 µM.
For `CS(=O)(=O)O.[Ag]`, the TGI was 24.4 µM in assay [1]; 36.4 µM in assay [10]; 6.29 µM in assay [2]; 11.4 µM in assay [3]; 34.2 µM in assay [4]; 30.2 µM in assay [6]. Moreover, the TGI in [7] was found to be 38.7 µM; in [8], 39.3 µM; in assay [9] it was 3.52 µM.
Consider `CC(=O)Nc1ccc(-c2nnc(SCC(=O)Nc3ccccc3C)o2)cc1`, for which the TGI in assay [1], in assay [10], in [2], in [3], in [5] and in [6] was above 100 µM in each case. Also, the TGI in assay [7], in [8] and in assay [9] was above 100 µM each time.
Turning to `CC(C)CCC[C@@H](C)[C@H]1CCC2C3=CCC4C(=O)C=CC(=O)C4C3CC[C@@]21C` (stereo not given in full), the GI50 in assay [1] is 0.372 µM; in [2] it was 0.11 µM; in [3], 0.27 µM; in assay [5] it was 0.135 µM; in [6] it was 1.14 µM; in assay [7] it was 0.256 µM. Besides, the GI50 was 0.839 µM in assay [8] and 0.0721 µM in [9]. For the same compound, the TGI in [3] is above 100 µM; in [5], 0.67 µM; in assay [7] it was above 100 µM; in [8], above 100 µM; in assay [9], 0.359 µM.
For the compound `CN(c1ccccc1Cl)S(=O)(=O)c1ccccc1[N+](=O)[O-]`, the TGI in [1], in [10], in [2], in assay [3], in [4] and in assay [6] was above 100 µM throughout. The TGI in [7], in assay [8] and in assay [9] was above 100 µM each time.
Take `Nc1nc2cc(CNc3ccc(C(=O)NC(CCC(=O)O)C(=O)O)cc3)ccc2nc1-c1ccccc1` (stereo not given): the TGI in [1], in assay [10], in [2], in assay [3], in assay [4] and in assay [6] was above 10 µM throughout. Moreover, the TGI in assay [7], in [8] and in assay [9] was above 10 µM throughout.
In the case of `C#CCOC(=O)C(N)CCCN=C(N)N` (stereo not given), the TGI in assay [1], in [2], in assay [3], in assay [4], in assay [5] and in assay [6] was above 100 µM throughout. For the same compound, the TGI in [7], in [8] and in assay [9] was above 100 µM in each case.
For the compound `CC(=O)NC1=C(NCc2ccc(Cl)cc2)C(=O)c2ccccc2C1=O`, the TGI is 12.4 µM in [1]; above 50 µM in assay [10]; 3.22 µM in assay [3]; 12.2 µM in [6]; above 50 µM in assay [7]; above 50 µM in [8]. In [9], this compound displayed a TGI of 11.4 µM.
For `COc1nc2[nH]ccc2c(=O)n1C`, the TGI is above 100 µM in assay [1]; above 100 µM in [2]; above 100 µM in assay [3]; 57.6 µM in assay [4]; above 100 µM in [5]; above 100 µM in assay [6]. Further, the TGI in assay [7] and in assay [8] was above 100 µM each time.
With `Cn1ccc(C(=O)NCCCCCNC(=O)c2ccn(C)c(=O)c2O)c(O)c1=O`, the TGI in assay [1], in assay [3], in assay [4], in assay [5], in assay [6] and in assay [7] was above 100 µM in each case. For the same compound, the TGI in [8] and in assay [9] was above 100 µM throughout.

The values above are taken from PubChem BioAssay (NCI).
